Measured values reported in article PMC6409085, “Three odorant-binding proteins are involved in the behavioral response of Sogatella furcifera to rice plant volatiles” (PeerJ, 2019).
Where “and” joins values, the source holds several entries; their conditions need not be identical. Equal entries are not always repeated.

What was measured:
SfurOBP1 = SfurOBP1 (Sogatella furcifera, UniProt V5T8N5); assay: biochemical; assay type: binding; details: for Fluorescence competitive binding assay, fluorescence intensity: OBP1, three replicate columns
Chain of SfurOBP1 (V5T8N5 entry or part of it): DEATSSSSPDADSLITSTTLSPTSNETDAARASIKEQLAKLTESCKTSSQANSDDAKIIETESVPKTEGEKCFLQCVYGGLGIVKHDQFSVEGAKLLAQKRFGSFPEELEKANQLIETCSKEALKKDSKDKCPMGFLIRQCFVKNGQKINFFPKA
Outline: (§1)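 1-NPN displacement assay with odorant competitor at 2–20 µM; protein and probe both 2.0 µM at pH 7.4. Ki is calculated from IC50 using the protein/1-NPN dissociation constant.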

SfurOBP11 = SfurOBP11 (Sogatella furcifera, UniProt V5T6E3); assay: biochemical; assay type: binding
Chain of SfurOBP11 (V5T6E3 entry or part of it): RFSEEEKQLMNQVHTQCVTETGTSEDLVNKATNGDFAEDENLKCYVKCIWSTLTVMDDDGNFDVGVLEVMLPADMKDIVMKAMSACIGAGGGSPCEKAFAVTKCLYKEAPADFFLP
Outline: as §1

SfurOBP2 = SfurOBP2 (Sogatella furcifera, UniProt V5T759); assay: biochemical; assay type: binding
Chain of SfurOBP2 (V5T759 entry or part of it): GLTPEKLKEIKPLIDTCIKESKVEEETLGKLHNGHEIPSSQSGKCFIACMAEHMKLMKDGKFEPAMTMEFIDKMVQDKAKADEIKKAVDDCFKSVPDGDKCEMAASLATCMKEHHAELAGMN
Outline: as §1

SfurOBP3 = SfurOBP3 (Sogatella furcifera, UniProt V5T818); assay: biochemical; assay type: binding; details: for Fluorescence competitive binding assay, fluorescence intensity: OBP3, three replicate columns
Chain of SfurOBP3 (V5T818 entry or part of it): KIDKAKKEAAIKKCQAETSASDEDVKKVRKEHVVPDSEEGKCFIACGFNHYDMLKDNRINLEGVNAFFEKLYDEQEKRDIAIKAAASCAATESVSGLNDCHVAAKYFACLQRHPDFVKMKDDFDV
Outline: as §1

S. furcifera adults = assay: Y-tube olfactometer behavioral trials; assay type: in vivo, Sogatella furcifera; details: odorant 50 µL/L vs hexane
Outline: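 Single S. furcifera adults (2 days post-emergence, starved 0.5 h) chose between odorant (100 µL of 50 µL/L on filter paper) and hexane control in a glass Y-tube, charcoal-filtered humidified air 300 mL/min per arm, 25 ± 1 °C, 50% RH. Choice scored if insect passed half an arm and stayed >1 min within 10 min; 45 insects per compound, chi-squared test.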

CCCCCCCC [n-octane]
Fluorescence competitive binding assay, fluorescence intensity (SfurOBP1; ligand concentration 2 (μM)): 5925 and 7991 and 7456 | Fluorescence competitive binding assay, fluorescence intensity (SfurOBP1; ligand concentration 4 (μM)): 8340 and 7163 and 7902 | Fluorescence competitive binding assay, fluorescence intensity (SfurOBP1; ligand concentration 6 (μM)): 8616 and 7456 and 8995 | Fluorescence competitive binding assay, fluorescence intensity (SfurOBP1; ligand concentration 8 (μM)): 8020 and 7176 and 8029 | Fluorescence competitive binding assay, fluorescence intensity (SfurOBP1; ligand concentration 10 (μM)): 7070 and 8613 and 8224 | Fluorescence competitive binding assay, fluorescence intensity (SfurOBP1; ligand concentration 12 (μM)): 6680 and 8217 and 6786 | Fluorescence competitive binding assay, fluorescence intensity (SfurOBP1; ligand concentration 14 (μM)): 7048 and 6801 and 7552 | Fluorescence competitive binding assay, fluorescence intensity (SfurOBP1; ligand concentration 16 (μM)): 6817 and 7163 and 7002 | Fluorescence competitive binding assay, fluorescence intensity (SfurOBP1; ligand concentration 18 (μM)): 8094 and 8514 and 8878 | Fluorescence competitive binding assay, fluorescence intensity (SfurOBP1; ligand concentration 20 (μM)): 7869 and 7702 and 8440 | IC50 (SfurOBP1; SfurOBP1, protein and 1-NPN both 2.0 µM, competitor 2-20 µM, read-out: IC50): > 20 µM | IC50 (SfurOBP11; SfurOBP11, protein and 1-NPN both 2.0 µM, competitor 2-20 µM, read-out: IC50): > 20 µM | Fluorescence intensity, fluorescence competitive binding assay, OBP11 (SfurOBP11; ligand concentration 2, replicate 1): 29315 | Fluorescence intensity, fluorescence competitive binding assay, OBP11 (SfurOBP11; ligand concentration 2, replicate 2): 29331 | Fluorescence intensity, fluorescence competitive binding assay, OBP11 (SfurOBP11; ligand concentration 2, replicate 3): 31569 | Fluorescence intensity, fluorescence competitive binding assay, OBP11 (SfurOBP11; ligand concentration 4, replicate 1): 28278 | Fluorescence intensity, fluorescence competitive binding assay, OBP11 (SfurOBP11; ligand concentration 4, replicate 2): 30015 | Fluorescence intensity, fluorescence competitive binding assay, OBP11 (SfurOBP11; ligand concentration 4, replicate 3): 31065 | Fluorescence intensity, fluorescence competitive binding assay, OBP11 (SfurOBP11; ligand concentration 6, replicate 1): 29774 | Fluorescence intensity, fluorescence competitive binding assay, OBP11 (SfurOBP11; ligand concentration 6, replicate 2): 29054 | Fluorescence intensity, fluorescence competitive binding assay, OBP11 (SfurOBP11; ligand concentration 6, replicate 3): 29894 | Fluorescence intensity, fluorescence competitive binding assay, OBP11 (SfurOBP11; ligand concentration 8, replicate 1): 27943 | Fluorescence intensity, fluorescence competitive binding assay, OBP11 (SfurOBP11; ligand concentration 8, replicate 2): 28064 | Fluorescence intensity, fluorescence competitive binding assay, OBP11 (SfurOBP11; ligand concentration 8, replicate 3): 27821 | Fluorescence intensity, fluorescence competitive binding assay, OBP11 (SfurOBP11; ligand concentration 10, replicate 1): 27525 | Fluorescence intensity, fluorescence competitive binding assay, OBP11 (SfurOBP11; ligand concentration 10, replicate 2): 26078 | Fluorescence intensity, fluorescence competitive binding assay, OBP11 (SfurOBP11; ligand concentration 10, replicate 3): 27163 | Fluorescence intensity, fluorescence competitive binding assay, OBP11 (SfurOBP11; ligand concentration 12, replicate 1): 24273 | Fluorescence intensity, fluorescence competitive binding assay, OBP11 (SfurOBP11; ligand concentration 12, replicate 2): 26556 | Fluorescence intensity, fluorescence competitive binding assay, OBP11 (SfurOBP11; ligand concentration 12, replicate 3): 26721 | Fluorescence intensity, fluorescence competitive binding assay, OBP11 (SfurOBP11; ligand concentration 14, replicate 1): 22920 | Fluorescence intensity, fluorescence competitive binding assay, OBP11 (SfurOBP11; ligand concentration 14, replicate 2): 23793 | Fluorescence intensity, fluorescence competitive binding assay, OBP11 (SfurOBP11; ligand concentration 14, replicate 3): 23357 | Fluorescence intensity, fluorescence competitive binding assay, OBP11 (SfurOBP11; ligand concentration 16, replicate 1): 19613 | Fluorescence intensity, fluorescence competitive binding assay, OBP11 (SfurOBP11; ligand concentration 16, replicate 2): 20535 | Fluorescence intensity, fluorescence competitive binding assay, OBP11 (SfurOBP11; ligand concentration 16, replicate 3): 20285 | Fluorescence intensity, fluorescence competitive binding assay, OBP11 (SfurOBP11; ligand concentration 18, replicate 1): 26966 | Fluorescence intensity, fluorescence competitive binding assay, OBP11 (SfurOBP11; ligand concentration 18, replicate 2): 26281 | Fluorescence intensity, fluorescence competitive binding assay, OBP11 (SfurOBP11; ligand concentration 18, replicate 3): 26291 | Fluorescence intensity, fluorescence competitive binding assay, OBP11 (SfurOBP11; ligand concentration 20, replicate 1): 26611 | Fluorescence intensity, fluorescence competitive binding assay, OBP11 (SfurOBP11; ligand concentration 20, replicate 2): 26798 | Fluorescence intensity, fluorescence competitive binding assay, OBP11 (SfurOBP11; ligand concentration 20, replicate 3): 25454 | IC50 (SfurOBP2; SfurOBP2, protein and 1-NPN both 2.0 µM, competitor 2-20 µM, read-out: IC50): 19.9 µM | Fluorescence competitive binding assay, OBP2 (raw fluorescence reading) (SfurOBP2; ligand concentration 2 (unit not given), replicate column 1 of 3): 18817 | Fluorescence competitive binding assay, OBP2 (raw fluorescence reading) (SfurOBP2; ligand concentration 2 (unit not given), replicate column 2 of 3): 16925 | Fluorescence competitive binding assay, OBP2 (raw fluorescence reading) (SfurOBP2; ligand concentration 2 (unit not given), replicate column 3 of 3): 16813 | Fluorescence competitive binding assay, OBP2 (raw fluorescence reading) (SfurOBP2; ligand concentration 4 (unit not given), replicate column 1 of 3): 17604 | Fluorescence competitive binding assay, OBP2 (raw fluorescence reading) (SfurOBP2; ligand concentration 4 (unit not given), replicate column 2 of 3): 17269 | Fluorescence competitive binding assay, OBP2 (raw fluorescence reading) (SfurOBP2; ligand concentration 4 (unit not given), replicate column 3 of 3): 15635 | Fluorescence competitive binding assay, OBP2 (raw fluorescence reading) (SfurOBP2; ligand concentration 6 (unit not given), replicate column 1 of 3): 16307 | Fluorescence competitive binding assay, OBP2 (raw fluorescence reading) (SfurOBP2; ligand concentration 6 (unit not given), replicate column 2 of 3): 16391 | Fluorescence competitive binding assay, OBP2 (raw fluorescence reading) (SfurOBP2; ligand concentration 6 (unit not given), replicate column 3 of 3): 15566 | Fluorescence competitive binding assay, OBP2 (raw fluorescence reading) (SfurOBP2; ligand concentration 8 (unit not given), replicate column 1 of 3): 15494 | Fluorescence competitive binding assay, OBP2 (raw fluorescence reading) (SfurOBP2; ligand concentration 8 (unit not given), replicate column 2 of 3): 15122 | Fluorescence competitive binding assay, OBP2 (raw fluorescence reading) (SfurOBP2; ligand concentration 8 (unit not given), replicate column 3 of 3): 16014 | Fluorescence competitive binding assay, OBP2 (raw fluorescence reading) (SfurOBP2; ligand concentration 10 (unit not given), replicate column 1 of 3): 15063 | Fluorescence competitive binding assay, OBP2 (raw fluorescence reading) (SfurOBP2; ligand concentration 10 (unit not given), replicate column 2 of 3): 14978 | Fluorescence competitive binding assay, OBP2 (raw fluorescence reading) (SfurOBP2; ligand concentration 10 (unit not given), replicate column 3 of 3): 15010 | Fluorescence competitive binding assay, OBP2 (raw fluorescence reading) (SfurOBP2; ligand concentration 12 (unit not given), replicate column 1 of 3): 12606 | Fluorescence competitive binding assay, OBP2 (raw fluorescence reading) (SfurOBP2; ligand concentration 12 (unit not given), replicate column 2 of 3): 12327 | Fluorescence competitive binding assay, OBP2 (raw fluorescence reading) (SfurOBP2; ligand concentration 12 (unit not given), replicate column 3 of 3): 12885 | Fluorescence competitive binding assay, OBP2 (raw fluorescence reading) (SfurOBP2; ligand concentration 14 (unit not given), replicate column 1 of 3): 12907 | Fluorescence competitive binding assay, OBP2 (raw fluorescence reading) (SfurOBP2; ligand concentration 14 (unit not given), replicate column 2 of 3): 11889 | Fluorescence competitive binding assay, OBP2 (raw fluorescence reading) (SfurOBP2; ligand concentration 14 (unit not given), replicate column 3 of 3): 12746 | Fluorescence competitive binding assay, OBP2 (raw fluorescence reading) (SfurOBP2; ligand concentration 16 (unit not given), replicate column 1 of 3): 11757 | Fluorescence competitive binding assay, OBP2 (raw fluorescence reading) (SfurOBP2; ligand concentration 16 (unit not given), replicate column 2 of 3): 11955 | Fluorescence competitive binding assay, OBP2 (raw fluorescence reading) (SfurOBP2; ligand concentration 16 (unit not given), replicate column 3 of 3): 11106 | Fluorescence competitive binding assay, OBP2 (raw fluorescence reading) (SfurOBP2; ligand concentration 18 (unit not given), replicate column 1 of 3): 11096 | Fluorescence competitive binding assay, OBP2 (raw fluorescence reading) (SfurOBP2; ligand concentration 18 (unit not given), replicate column 2 of 3): 11451 | Fluorescence competitive binding assay, OBP2 (raw fluorescence reading) (SfurOBP2; ligand concentration 18 (unit not given), replicate column 3 of 3): 11415 | Fluorescence competitive binding assay, OBP2 (raw fluorescence reading) (SfurOBP2; ligand concentration 20 (unit not given), replicate column 1 of 3): 12132 | Fluorescence competitive binding assay, OBP2 (raw fluorescence reading) (SfurOBP2; ligand concentration 20 (unit not given), replicate column 2 of 3): 10679 | Fluorescence competitive binding assay, OBP2 (raw fluorescence reading) (SfurOBP2; ligand concentration 20 (unit not given), replicate column 3 of 3): 10932 | Fluorescence competitive binding assay, fluorescence intensity (SfurOBP3; ligand concentration 2): 68170 and 67677 and 64610 | Fluorescence competitive binding assay, fluorescence intensity (SfurOBP3; ligand concentration 4): 67293 and 62720 and 65655 | Fluorescence competitive binding assay, fluorescence intensity (SfurOBP3; ligand concentration 6): 76553 and 64631 and 57162 | Fluorescence competitive binding assay, fluorescence intensity (SfurOBP3; ligand concentration 8): 71829 and 61798 and 56284 | Fluorescence competitive binding assay, fluorescence intensity (SfurOBP3; ligand concentration 10): 59554 and 55292 and 53530 | Fluorescence competitive binding assay, fluorescence intensity (SfurOBP3; ligand concentration 12): 55099 and 48687 and 52349 | Fluorescence competitive binding assay, fluorescence intensity (SfurOBP3; ligand concentration 14): 54529 and 46904 and 51749 | Fluorescence competitive binding assay, fluorescence intensity (SfurOBP3; ligand concentration 16): 48833 and 47113 and 45049 | Fluorescence competitive binding assay, fluorescence intensity (SfurOBP3; ligand concentration 18): 45841 and 47813 and 46502 | Fluorescence competitive binding assay, fluorescence intensity (SfurOBP3; ligand concentration 20): 46899 and 47179 and 42858 | IC50 (SfurOBP3; SfurOBP3, protein and 1-NPN both 2.0 µM, competitor 2-20 µM, read-out: IC50): > 20 µM | behavioral response of S. furcifera (in words) (S. furcifera adults): significantly repelled | number of insects choosing hexane arm (S. furcifera adults; adults): 19 | number of insects choosing volatilies arm (S. furcifera adults; adults): 10 | number of insects failed (no choice) (S. furcifera adults; adults): 11
